Some test systems named below: Lactococcus garvieae; Streptococcus iniae; Vibrio alginolyticus; Vibrio harveyi; Vibrio parahaemolyticus; Aeromonas hydrophila 12; Pseudomonas aeruginosa.
Assay in all cases: ≥ marks a high value that may be exact or a test limit, other limits are often not marked, values filed in µg/mL are converted to µM
Test [1] has as its system Acinetobacter baumannii ATCC BAA-747.
The subject of test [2] is Bacillus subtilis IFO 3134.
In test [3] the test system is Enterobacter cloacae BCRC 10401.
For test [4], the system named is Enterococcus faecium ATCC 700221.
The test system of test [5] is Escherichia coli ATCC 25922.
Test [6] concerns Escherichia coli BCRC 10675.
Test [7] has as its system Escherichia coli IFO 12734.
In test [8] the test system is Klebsiella aerogenes BCRC 10370.
Test [9] deals with Klebsiella oxytoca BCRC 13985.
The subject of test [10] is Klebsiella pneumoniae ATCC 700603.
Test [11] has as its system Listeria monocytogenes BCRC 14845.
Test [12] relates to Pseudomonas aeruginosa ATCC 27583.
The subject of test [13] is Pseudomonas aeruginosa BCRC 10944.
Test [14] concerns Pseudomonas aeruginosa IFO 12582.
In test [15] the test system is Staphylococcus aureus ATCC 43300.
Test [16] deals with Staphylococcus aureus BCRC 10780.
Test [17] deals with Staphylococcus aureus BCRC 10781.
Test [18] concerns Staphylococcus aureus IFO 12732.
In test [19] the test system is Staphylococcus xylosus BCRC 12930.
The subject of test [20] is Streptococcus equinus BCRC 14729.
Test [21] has as its system Vibrio alginolyticus BCRC 12829.
In test [22] the test system is Vibrio anguillarum serotype O1.
Test [23] has as its system Vibrio parahaemolyticus BCRC 10806.
For test [24], the system named is Yersinia enterocolitica BCRC 13999.
In test [25] the test system is Aeromonas intestinalis 58209.
In test [26] the test system is Aeromonas sobria CR79-1-1.
For test [27], the system named is Escherichia coli DH5alpha.
The subject of test [28] is Flavobacterium columnare G4.
Test [29] relates to Pseudomonas fluorescens 56-12-10.
In test [30] the test system is Pseudomonas fluorescens biotype I W81-11.
For test [31], the system named is Vibrio anguillarum E-3-11.
Test [32] concerns Vibrio anguillarum SGL 8542.
For test [33], the system named is Yersinia ruckeri SC90-2-4.
For test [34], the system named is Bacillus subtilis ATCC 62037.
Test [35] relates to Candida albicans ATCC 10231.
Test [36] has as its system Cryptococcus neoformans ATCC 34881.
The subject of test [37] is Escherichia coli ATCC 27325.
The subject of test [38] is Pseudomonas putida ATCC 17426.
The test system of test [39] is Saccharomyces cerevisiae ATCC 44774.
For test [40], the system named is Salmonella enterica subsp. enterica serovar Enteritidis ATCC 13076.
Test [41] concerns Staphylococcus aureus ATCC 15752.
For test [42], the system named is Streptococcus mutans ATCC 25175.
Test [43] concerns Staphylococcus aureus ATCC 6538P.
Test [44] deals with Staphylococcus aureus KO-4.
For test [45], the system named is Trichophyton mentagrophytes IFO 5466.
Test [46] deals with Trypanosoma brucei brucei GUT Tat3.1.

SMILES strings stand for the structures. Converted amounts (≈) assume the structure as drawn. “And” between values parts separate entries of the source, which are not always exact repeats. Equal entries are not always repeated.

Regarding `CC[C@H](C)[C@H](NC(=O)CN)C(=O)NCC(=O)N[C@@H](CCCCN)C(=O)N[C@@H](Cc1ccccc1)C(=O)N[C@@H](CC(C)C)C(=O)N[C@@H](Cc1cnc[nH]1)C(=O)N[C@@H](CO)C(=O)N[C@@H](C)C(=O)N[C@@H](CCCCN)C(=O)N[C@@H](CCCCN)C(=O)N[C@@H](Cc1c[nH]c2ccccc12)C(=O)NCC(=O)N[C@@H](CCCCN)C(=O)N[C@@H](C)C(=O)N[C@@H](Cc1ccccc1)C(=O)N[C@H](C(=O)NCC(=O)N[C@@H](CCC(=O)O)C(=O)N[C@H](C(=O)N[C@@H](CCSC)C(=O)N[C@@H](CC(N)=O)C(=O)N[C@@H](CO)C(N)=O)[C@@H](C)CC)C(C)C` [GIGKFLHSAKKWGKAFVGEIMNS], the MIC in test [1] turned out to be 8 µM (≈ 20 µg/mL); in test [2], 9.98 µM (≈ 25 µg/mL); in test [3], 12.8 µM (≈ 32 µg/mL); in test [4], 16 µM (≈ 40.1 µg/mL); in test [5], 8 µM (≈ 20 µg/mL); in test [6], 25.5 µM (≈ 64 µg/mL). The MIC in [7] was 4.79 µM (≈ 12 µg/mL); in test [8], at least 51.1 µM; in [9], 25.5 µM (≈ 64 µg/mL); in test [10] it was 64 µM (≈ 160 µg/mL); with Lactococcus garvieae, 12.8 µM (≈ 32 µg/mL); in test [11], at least 51.1 µM. Also, the MIC in [12] was at least 32 µM; in test [13], 25.5 µM (≈ 64 µg/mL); in test [14], 9.98 µM (≈ 25 µg/mL); in test [15], above 128 µM; in [16] it was at least 51.1 µM; in [17] it was at least 51.1 µM. The minimum inhibitory concentration (MIC) in [18] was 9.98 µM (≈ 25 µg/mL); in test [19], at least 51.1 µM; in [20], at least 51.1 µM; against Streptococcus iniae, at least 51.1 µM; in test [21], at least 51.1 µM; in the test on Vibrio alginolyticus it was at least 51.1 µM. Besides, the minimum inhibitory concentration (MIC) in test [22] is 3.19 µM (≈ 8 µg/mL); in the test on Vibrio harveyi, at least 51.1 µM; in test [23], at least 51.1 µM; in the test with Vibrio parahaemolyticus, 1.6 µM (≈ 4 µg/mL); in test [24] it was at least 51.1 µM.

As for `CC[C@H](C)[C@H](N)C(=O)N[C@@H](Cc1ccccc1)C(=O)N[C@@H](Cc1cnc[nH]1)C(=O)N[C@@H](Cc1cnc[nH]1)C(=O)N[C@H](C(=O)N[C@@H](Cc1ccccc1)C(=O)N[C@@H](CCCCN)C(=O)NCC(=O)N[C@H](C(=O)N[C@H](C(=O)N[C@@H](Cc1cnc[nH]1)C(=O)N[C@H](C(=O)NCC(=O)N[C@@H](CCCCN)C(=O)N[C@H](C(=O)N[C@H](C(=O)N[C@@H](Cc1cnc[nH]1)C(=O)N[C@@H](CCCN=C(N)N)C(=O)N[C@@H](CC(C)C)C(=O)N[C@H](C(=O)N[C@H](C(=O)NCC(N)=O)[C@@H](C)O)C(C)C)[C@@H](C)CC)[C@@H](C)O)C(C)C)C(C)C)[C@@H](C)CC)[C@@H](C)CC` [IFHHIFKGIVHVGKTIHRLVTG], the MIC is at least 160 µM in the test with Aeromonas hydrophila 12; 14.1 µM (≈ 35.5 µg/mL) in test [25]; 14.1 µM (≈ 35.5 µg/mL) in [26]; 7.07 µM (≈ 17.7 µg/mL) in test [27]; at least 56.6 µM in test [28]; 14.1 µM (≈ 35.5 µg/mL) in test [29]. Further, the MIC in test [30] was 14.1 µM (≈ 35.5 µg/mL); in [31], 28.3 µM (≈ 71 µg/mL); in [32], at least 56.6 µM; in test [33], 28.3 µM (≈ 71 µg/mL).

For the compound `CC(C)[C@H](NC(=O)[C@H](CCCCN)NC(=O)CNC(=O)CNC(=O)[C@H](CCC(N)=O)NC(=O)[C@H](CCCCN)NC(=O)CNC(=O)[C@H](CCCN=C(N)N)NC(=O)CNC(=O)[C@@H](N)CCCCN)C(=O)N[C@@H](CCCN=C(N)N)C(=O)N[C@@H](C)C(=O)N[C@@H](CCCCN)C(=O)N[C@@H](C)C(=O)O` [KGRGKQGGKVRAKA], the MIC in test [34] is at least 44.4 µM; in test [35], above 88.8 µM; in [36], at least 88.8 µM; in test [37], at least 88.8 µM; in [38], at least 44.4 µM; in test [39], at least 88.8 µM. Further, the MIC in test [40], in test [41] and in test [42] was at least 88.8 µM in each case.

As to `CC[C@H](C)[C@H](NC(=O)[C@H](CCCN=C(N)N)NC(=O)[C@H](CC(C)C)NC(=O)[C@H](CCCN=C(N)N)NC(=O)[C@H](CC(C)C)NC(=O)[C@@H](N)CCCN=C(N)N)C(=O)NCC(=O)N[C@@H](CCCN=C(N)N)C(=O)N[C@@H](CCCN=C(N)N)C(N)=O` [RLRLRIGRR], the MIC with Pseudomonas aeruginosa was 669 µM (≈ 799 µg/mL); in test [43] it was 0.837 µM and 1.67 µM; in test [44], at least 502 µM; in [45], at least 41.8 µM; in [46], at least 500 µM.

In general, MIC refers to the smallest concentration in the dilution series that meets the test's criterion for growth inhibition. A lower MIC goes with a more susceptible organism.

(Values after DBAASP.)
